From ChEMBL document CHEMBL1773033, “Cyclic lactam hybrid α-MSH/Agouti-related protein (AGRP) analogues with nanomolar range binding affinities at the human melanocortin receptors” (Bioorg Med Chem Lett, 2011) come the findings set out here.

Positions of bridges follow the written chain, without caps; N, C: chain ends. Non-standard residues stand in square brackets, D forms with d. Residues, ends and D or L forms follow the SMILES beside them. 2Nal = N[C@@H](Cc1ccc2ccccc2c1)C(=O)O

The target in experiment [1] is T1, Melanocyte-stimulating hormone receptor (Homo sapiens, UniProt Q01726). The experiment can be described thus: Agonist activity at human MC1R expressed in HEK293 cells assessed as increase in intracellular cAMP accumulation. Format: functional, cell-based.
Target sequence in this assay (Q01726 whole entry): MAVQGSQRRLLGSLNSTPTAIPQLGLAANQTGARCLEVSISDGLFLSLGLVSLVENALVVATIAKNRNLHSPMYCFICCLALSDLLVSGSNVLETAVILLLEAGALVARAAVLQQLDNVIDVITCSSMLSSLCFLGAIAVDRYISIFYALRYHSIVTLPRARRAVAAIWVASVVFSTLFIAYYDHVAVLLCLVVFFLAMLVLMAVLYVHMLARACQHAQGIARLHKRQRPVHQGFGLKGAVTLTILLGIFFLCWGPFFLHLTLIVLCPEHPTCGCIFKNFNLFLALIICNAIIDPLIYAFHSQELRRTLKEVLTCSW
The target of experiment [2] is T2, Melanocortin receptor 3 (Homo sapiens, UniProt P41968). The experiment can be described thus: Agonist activity at human MC3R expressed in HEK293 cells assessed as intracellular cAMP accumulation. Format: functional, cell-based.
The target of experiment [3] is T1, Melanocyte-stimulating hormone receptor. The experiment can be described thus: Agonist activity at human MC1R expressed in HEK293 cells assessed as increase in intracellular cAMP level at 10 uM after 3 mins by luminescence counter relative to Ac-Nle-c[Asp-His-D-Phe-Arg-Trp-Lys]-NH2. Format: functional, cell-based.
Target sequence in this assay (Q01726 whole entry, looked up): as the sequence (Q01726 whole entry) above
In experiment [4] the target is T2, Melanocortin receptor 3. The experiment can be described thus: Displacement of [125I]-NDP-alpha-MSH from human MC3R expressed in HEK293 cells at 10 uM after 40 mins by Wallac 1470 gamma counting relative to Ac-Nle-c[Asp-His-D-Phe-Arg-Trp-Lys]-NH2. Format: cell-based.
In experiment [5] the target is T3, Melanocortin receptor 5 (Homo sapiens, UniProt P33032). The experiment can be described thus: Displacement of [125I]-NDP-alpha-MSH from human MC5R expressed in HEK293 cells after 40 mins by Wallac 1470 gamma counting. Format: cell-based.
Experiment [6] concerns the target T3, Melanocortin receptor 5. The experiment can be described thus: Agonist activity at human MC5R expressed in HEK293 cells assessed as intracellular cAMP accumulation. Format: functional, cell-based.
For experiment [7], the target named is T4, Melanocortin receptor 4 (Homo sapiens, UniProt P32245). The experiment can be described thus: Agonist activity at human MC4R expressed in HEK293 cells assessed as intracellular cAMP accumulation. Format: functional, cell-based.
In experiment [8] the target is T2, Melanocortin receptor 3. The experiment can be described thus: Displacement of [125I]-NDP-alpha-MSH from human MC3R expressed in HEK293 cells after 40 mins by Wallac 1470 gamma counting. Format: cell-based.
Experiment [9] concerns the target T3, Melanocortin receptor 5. The experiment can be described thus: Agonist activity at human MC5R expressed in HEK293 cells assessed as increase in intracellular cAMP level at 10 uM after 3 mins by luminescence counter relative to Ac-Nle-c[Asp-His-D-Phe-Arg-Trp-Lys]-NH2. Format: functional, cell-based.
In experiment [10] the target is T4, Melanocortin receptor 4. The experiment can be described thus: Displacement of [125I]-NDP-alpha-MSH from human MC4R expressed in HEK293 cells after 40 mins by Wallac 1470 gamma counting. Format: cell-based.
Experiment [11] has as its target T4, Melanocortin receptor 4. The experiment can be described thus: Displacement of [125I]-NDP-alpha-MSH from human MC4R expressed in HEK293 cells at 10 uM after 40 mins by Wallac 1470 gamma counting relative to Ac-Nle-c[Asp-His-D-Phe-Arg-Trp-Lys]-NH2. Format: cell-based.
The target in experiment [12] is T1, Melanocyte-stimulating hormone receptor. The experiment can be described thus: Displacement of [125I]-NDP-alpha-MSH from human MC1R expressed in HEK293 cells after 40 mins by Wallac 1470 gamma counting. Format: cell-based.
Target sequence in this assay (Q01726 whole entry): as above
Experiment [13] concerns the target T4, Melanocortin receptor 4. The experiment can be described thus: Agonist activity at human MC4R expressed in HEK293 cells assessed as increase in intracellular cAMP level at 10 uM after 3 mins by luminescence counter relative to Ac-Nle-c[Asp-His-D-Phe-Arg-Trp-Lys]-NH2. Format: functional, cell-based.
Experiment [14] deals with T2, Melanocortin receptor 3. The experiment can be described thus: Agonist activity at human MC3R expressed in HEK293 cells assessed as increase in intracellular cAMP level at 10 uM after 3 mins by luminescence counter relative to Ac-Nle-c[Asp-His-D-Phe-Arg-Trp-Lys]-NH2. Format: functional, cell-based.
Experiment [15] deals with T1, Melanocyte-stimulating hormone receptor. The experiment can be described thus: Displacement of [125I]-NDP-alpha-MSH from human MC1R expressed in HEK293 cells at 10 uM after 40 mins by Wallac 1470 gamma counting relative to Ac-Nle-c[Asp-His-D-Phe-Arg-Trp-Lys]-NH2. Format: cell-based.
Target sequence in this assay (Q01726 whole entry, looked up): as the sequence (Q01726 whole entry) above

T4 sequence (P32245 whole entry): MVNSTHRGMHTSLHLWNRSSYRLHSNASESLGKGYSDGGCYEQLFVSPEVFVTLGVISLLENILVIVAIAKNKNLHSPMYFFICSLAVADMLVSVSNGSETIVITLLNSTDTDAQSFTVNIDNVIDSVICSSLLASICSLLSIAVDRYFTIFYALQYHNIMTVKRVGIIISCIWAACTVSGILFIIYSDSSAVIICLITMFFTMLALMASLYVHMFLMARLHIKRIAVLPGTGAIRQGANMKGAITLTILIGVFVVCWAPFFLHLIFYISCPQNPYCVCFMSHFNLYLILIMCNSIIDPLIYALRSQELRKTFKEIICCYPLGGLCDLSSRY
T2 sequence (P41968 whole entry): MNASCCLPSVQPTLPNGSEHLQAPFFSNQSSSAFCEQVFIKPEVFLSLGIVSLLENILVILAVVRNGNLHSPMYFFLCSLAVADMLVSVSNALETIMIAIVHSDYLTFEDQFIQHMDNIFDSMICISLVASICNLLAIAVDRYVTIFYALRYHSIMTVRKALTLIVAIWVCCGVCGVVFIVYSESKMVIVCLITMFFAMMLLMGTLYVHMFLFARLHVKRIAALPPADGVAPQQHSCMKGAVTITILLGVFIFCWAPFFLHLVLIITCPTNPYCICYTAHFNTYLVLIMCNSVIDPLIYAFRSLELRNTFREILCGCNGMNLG
T3 sequence (P33032 whole entry): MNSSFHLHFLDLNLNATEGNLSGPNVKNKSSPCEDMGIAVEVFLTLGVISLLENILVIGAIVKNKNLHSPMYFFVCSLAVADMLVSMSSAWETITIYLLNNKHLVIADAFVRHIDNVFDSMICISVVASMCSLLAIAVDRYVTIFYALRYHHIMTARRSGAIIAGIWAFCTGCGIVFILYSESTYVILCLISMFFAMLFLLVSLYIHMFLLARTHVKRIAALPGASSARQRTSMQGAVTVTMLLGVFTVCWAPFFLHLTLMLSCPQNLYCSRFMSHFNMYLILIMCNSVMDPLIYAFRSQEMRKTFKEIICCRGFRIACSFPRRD

`C[C@@H]1NC(=O)[C@@H](CCC(N)=O)NC(=O)[C@H](Cc2ccccc2)NC(=O)[C@H](Cc2c[nH]c3ccccc23)NC(=O)[C@H](CCCNC(=N)N)NC(=O)CC[C@@H](C(N)=O)NC(=O)[C@H](Cc2ccccc2)NC1=O` (RWF[dQ]AFE-NH2; lactam N-7): the EC50 result (in experiment [1]; on Melanocortin receptor 3 [2]; at Melanocortin receptor 5 [6]; on Melanocortin receptor 4 [7]) was “Not Active” in each case. Moreover, the Activity (in experiment [3]; on Melanocortin receptor 3 [4]; on Melanocortin receptor 5 [9]; at Melanocortin receptor 4 [11]) was 0% each time. Besides, the IC50 result (on Melanocortin receptor 5 [5]; at Melanocortin receptor 3 [8]; on Melanocortin receptor 4 [10]; in [12]) was “Not Active” each time.
Turning to `CC(=O)N[C@H]1CC(=O)NCCCC[C@@H](C(N)=O)NC(=O)[C@@H](CCC(N)=O)NC(=O)[C@H](Cc2ccc3ccccc3c2)NC(=O)[C@H](Cc2c[nH]c3ccccc23)NC(=O)[C@H](CCCNC(=N)N)NC1=O` (Ac-DRW[2Nal][dQ]K-NH2; lactam 1-6), the EC50 entry (in experiment [1]; on Melanocortin receptor 3 [2]; at Melanocortin receptor 5 [6]; on Melanocortin receptor 4 [7]) was “Not Active” in each case. The Activity (in [3]; on Melanocortin receptor 3 [4]; on Melanocortin receptor 4 [13]; at Melanocortin receptor 5 [9]) was 0% each time. Further, the IC50 entry (at Melanocortin receptor 5 [5]; at Melanocortin receptor 3 [8]; at Melanocortin receptor 4 [10]; in [12]) was “Not Active” each time.
Consider `C[C@@H]1NC(=O)[C@@H](CCCNC(=N)N)NC(=O)[C@H](Cc2ccccc2)NC(=O)[C@H](Cc2c[nH]c3ccccc23)NC(=O)[C@H](CCCNC(=N)N)NC(=O)CC[C@@H](C(N)=O)NC(=O)[C@H](Cc2ccccc2)NC1=O`, for which the EC50 result (in experiment [1]; on Melanocortin receptor 3 [2]; at Melanocortin receptor 5 [6]; on Melanocortin receptor 4 [7]) was “Not Active” in each case. The Activity at Melanocortin receptor 3 [4] turned out to be 30%; on Melanocortin receptor 4 [13], 0%. The IC50 result on Melanocortin receptor 4 [10] is reported as “Not Active”.
With `C[C@@H]1NC(=O)[C@@H](Cc2cnc[nH]2)NC(=O)[C@H](Cc2ccccc2)NC(=O)[C@H](Cc2c[nH]c3ccccc23)NC(=O)[C@H](CCCNC(=N)N)NC(=O)CC[C@@H](C(N)=O)NC(=O)[C@H](Cc2ccccc2)NC1=O` (RWF[dH]AFE-NH2; lactam N-7), the EC50 result (in [1]; on Melanocortin receptor 3 [2]; on Melanocortin receptor 5 [6]; on Melanocortin receptor 4 [7]) was “Not Active” throughout. Also, the Activity at Melanocortin receptor 3 [14], at Melanocortin receptor 4 [13] and on Melanocortin receptor 5 [9] was 0% throughout. In addition, the IC50 result at Melanocortin receptor 5 [5], on Melanocortin receptor 3 [8] and at Melanocortin receptor 4 [10] was “Not Active” in each case.
In the case of `C[C@@H]1NC(=O)[C@H](CCCNC(=N)N)NC(=O)[C@@H](Cc2ccccc2)NC(=O)[C@H](Cc2c[nH]c3ccccc23)NC(=O)[C@H](CCCNC(=N)N)NC(=O)CC[C@@H](C(N)=O)NC(=O)[C@H](Cc2ccccc2)NC1=O`, the EC50 entry at Melanocortin receptor 3 [2], at Melanocortin receptor 5 [6] and at Melanocortin receptor 4 [7] was “Not Active” throughout.
On to `C[C@@H]1NC(=O)[C@@H](CCC(N)=O)NC(=O)[C@H](Cc2ccc3ccccc3c2)NC(=O)[C@H](Cc2c[nH]c3ccccc23)NC(=O)[C@H](CCCNC(=N)N)NC(=O)CC[C@@H](C(N)=O)NC(=O)[C@H](Cc2ccccc2)NC1=O` (RW[2Nal][dQ]AFE-NH2; lactam N-7), for which the EC50 entry (in experiment [1]; at Melanocortin receptor 3 [2]; on Melanocortin receptor 5 [6]; at Melanocortin receptor 4 [7]) was “Not Active” in each case. Also, the Activity (on Melanocortin receptor 3 [14]; at Melanocortin receptor 4 [13]; at Melanocortin receptor 5 [9]; in [15]) was 0% throughout. Moreover, the IC50 result (at Melanocortin receptor 5 [5]; on Melanocortin receptor 3 [8]; at Melanocortin receptor 4 [10]; in [12]) was “Not Active” in each case.
As for `C[C@@H]1NC(=O)[C@H](CC(N)=O)NC(=O)[C@@H](Cc2ccccc2)NC(=O)[C@H](Cc2c[nH]c3ccccc23)NC(=O)[C@H](CCCNC(=N)N)NC(=O)CC[C@@H](C(N)=O)NC(=O)[C@H](Cc2ccccc2)NC1=O` (RW[dF]NAFE-NH2; lactam N-7), the EC50 entry (in experiment [1]; at Melanocortin receptor 3 [2]; on Melanocortin receptor 5 [6]; at Melanocortin receptor 4 [7]) was “Not Active” throughout. For the same molecule, the Activity (on Melanocortin receptor 3 [14]; at Melanocortin receptor 4 [13]; at Melanocortin receptor 5 [9]; in [15]) was 0% throughout. Also, the IC50 entry (at Melanocortin receptor 5 [5]; on Melanocortin receptor 3 [8]; on Melanocortin receptor 4 [10]; in experiment [12]) was “Not Active” throughout.
For the molecule `CC(=O)N[C@H]1CC(=O)NCCCC[C@@H](C(N)=O)NC(=O)[C@@H](CC(N)=O)NC(=O)[C@H](Cc2ccc3ccccc3c2)NC(=O)[C@H](Cc2c[nH]c3ccccc23)NC(=O)[C@H](CCCNC(=N)N)NC1=O` (Ac-DRW[2Nal][dN]K-NH2; lactam 1-6), the EC50 entry (in experiment [1]; on Melanocortin receptor 3 [2]; at Melanocortin receptor 5 [6]; at Melanocortin receptor 4 [7]) was “Not Active” each time. In addition, the Activity (in [3]; at Melanocortin receptor 3 [4]; at Melanocortin receptor 4 [13]; at Melanocortin receptor 5 [9]) was 0% in each case. The IC50 result (on Melanocortin receptor 5 [5]; on Melanocortin receptor 3 [8]; on Melanocortin receptor 4 [10]; in [12]) was “Not Active” each time.
Take `C[C@@H]1NC(=O)[C@H](Cc2cnc[nH]2)NC(=O)[C@@H](Cc2ccccc2)NC(=O)[C@H](Cc2c[nH]c3ccccc23)NC(=O)[C@H](CCCNC(=N)N)NC(=O)CC[C@@H](C(N)=O)NC(=O)[C@H](Cc2ccccc2)NC1=O` (RW[dF]HAFE-NH2; lactam N-7): the EC50 result (in experiment [1]; on Melanocortin receptor 3 [2]; on Melanocortin receptor 5 [6]; at Melanocortin receptor 4 [7]) was “Not Active” in each case. Further, the Activity (at Melanocortin receptor 3 [14]; in [3]; at Melanocortin receptor 5 [9]; on Melanocortin receptor 4 [11]) was 0% in each case. The IC50 result (at Melanocortin receptor 5 [5]; on Melanocortin receptor 3 [8]; on Melanocortin receptor 4 [10]; in experiment [12]) was “Not Active” in each case.
As for `C[C@@H]1NC(=O)[C@H](CC(N)=O)NC(=O)[C@H](Cc2ccccc2)NC(=O)[C@H](Cc2c[nH]c3ccccc23)NC(=O)[C@H](CCCNC(=N)N)NC(=O)CC[C@@H](C(N)=O)NC(=O)[C@H](Cc2ccccc2)NC1=O` (RWFNAFE-NH2; lactam N-7), the EC50 entry (in experiment [1]; on Melanocortin receptor 3 [2]; at Melanocortin receptor 5 [6]; at Melanocortin receptor 4 [7]) was “Not Active” each time. Besides, the Activity (on Melanocortin receptor 3 [14]; at Melanocortin receptor 4 [13]; at Melanocortin receptor 5 [9]; in [15]) was 0% in each case. The IC50 result (on Melanocortin receptor 5 [5]; at Melanocortin receptor 3 [8]; on Melanocortin receptor 4 [10]; in [12]) was “Not Active” each time.
On to `C[C@@H]1NC(=O)[C@@H](CC(N)=O)NC(=O)[C@H](Cc2ccccc2)NC(=O)[C@H](Cc2c[nH]c3ccccc23)NC(=O)[C@H](CCCNC(=N)N)NC(=O)CC[C@@H](C(N)=O)NC(=O)[C@H](Cc2ccccc2)NC1=O` (RWF[dN]AFE-NH2; lactam N-7), for which the EC50 result (in [1]; at Melanocortin receptor 3 [2]; on Melanocortin receptor 5 [6]; on Melanocortin receptor 4 [7]) was “Not Active” each time. The Activity (on Melanocortin receptor 3 [4]; at Melanocortin receptor 4 [13]; at Melanocortin receptor 5 [9]; in [15]) was 0% throughout. The IC50 entry (at Melanocortin receptor 5 [5]; at Melanocortin receptor 3 [8]; at Melanocortin receptor 4 [10]; in [12]) was “Not Active” in each case.
